The target in this experiment is MNK2a (Homo sapiens (Human), UniProt Q9HBH9). Description: MNK2a in vitro kinase assay (Assay 2), ADP-Glo. The experiment is classed as biochemical. The settings on record: read-out: MNK2 IC50. As to the method: B. MNK2a In vitro Kinase Assay (Assay 2)
ASSAY SETUP: The inhibition of kinase activity of MNK2a was assessed using pre-activated GST-MNK2a. The white, 384-well OptiPlate F plates were purchased from PerkinElmer. The ADP-Glo Kinase Assay (including ultra pure ATP) was purchased from Promega (V9103). Activated MNK2a was obtained as described in WO2011/104340. […] ID No. 5 of WO 2011/104340 by the C-terminal —CONH2 group, was purchased from Thermo Fisher Scientific. All other materials were of highest grade commercially available. Compounds are tested in either serial dilutions or single dose concentrations. The compound stock solutions are 10 mM in 100% DMSO The serial compound dilutions are prepared in 100% DMSO followed by 1:27.3 intermediate dilution in assay buffer. The final DMSO concentration in assay will be <3%. In the 384-well plates 3 μl of test compound from the intermediate dilution is mixed with 4 μl of the activated MNK2 enzyme (final concentration of 10 nM) and 4 μl of the peptide (final concentration of 25 μM)/ultra pure ATP (final concentration of 20 μM), all dissolved in assay buffer. This step is followed by an incubation time of 90 min, then 10 μl of ADP Glo reagent are added, followed by 40 min of incubation. Then 20 μl of kinase detection reagent are admixed. The plates are sealed and after an incubation period of 30 min, the luminescence signal is measured in an Envision reader to determine the amount of produced ADP. All incubation steps are performed at room temperature. The assay buffer consists of 20 mM HEPES, 2 mM DTT, 0.01% BSA, 20 mM MgCl2 and 0.1% Pluronic F-127.
The luminescent signal generated is proportional to the ADP concentration produced and is correlated with activated MNK2 activity. The analysis of the data is performed by the calculation of the percentage of ATP consumption of activated MNK2 in the presence of the test compound compared to the consumption of ATP in the presence of activated MNK2 without compound. (RLU(sample)−RLU(low control))*100/(RLU(high value)−RLU(low control)) [RLU=relative luminescence units]
[…] values based on dose response curves are calculated with the AssayExplorer software.

MNK2a, sequence (Q9HBH9 whole entry): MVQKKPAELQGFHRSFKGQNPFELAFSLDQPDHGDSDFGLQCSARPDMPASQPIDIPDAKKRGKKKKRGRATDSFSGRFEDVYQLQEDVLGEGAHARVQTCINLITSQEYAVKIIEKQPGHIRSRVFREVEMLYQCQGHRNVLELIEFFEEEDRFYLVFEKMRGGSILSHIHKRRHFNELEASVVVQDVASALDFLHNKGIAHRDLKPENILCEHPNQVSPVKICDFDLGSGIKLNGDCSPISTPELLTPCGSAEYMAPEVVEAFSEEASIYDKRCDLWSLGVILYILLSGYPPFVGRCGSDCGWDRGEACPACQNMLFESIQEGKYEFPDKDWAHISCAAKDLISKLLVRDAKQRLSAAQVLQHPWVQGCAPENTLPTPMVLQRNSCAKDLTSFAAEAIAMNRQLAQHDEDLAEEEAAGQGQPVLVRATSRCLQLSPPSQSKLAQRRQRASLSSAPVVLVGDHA

For `C[C@H](C#N)NC(=O)[C@@H](C)Oc1cc(F)ccc1Nc1ncnc2cc(N=S3(=O)CCC3)cc(Cl)c12` [Example 4.112], the IC50 was found to be 2 nM.
Take `C[C@H](C#N)NC(=O)[C@@H](C)Oc1cc(F)ccc1Nc1ncnc2cc(N=S3(=O)CCC3)cc(F)c12` [Example 4.113]: the IC50 is 1 nM.
The same measure for `CC(C)NC(=O)[C@@H](C)Oc1cc(F)ccc1Nc1ncnc2cc(N=S3(=O)CCC3)cc(F)c12` [Example 4.114]: 5 nM; for `COc1cc(N=S2(=O)CCC2)cc2ncnc(Nc3ccc(F)cc3O[C@H](C)C(=O)NCC#N)c12` [Example 4.115]: 2 nM; for `Cc1cc(N=S2(=O)CCC2)cc2ncnc(Nc3ccc(F)cc3O[C@H](C)C(=O)NCCC(F)F)c12` [Example 4.116]: 2 nM.
As to `C[C@@H](Oc1cc(F)ccc1Nc1ncnc2cc(N=S3(=O)CCC3)cc(F)c12)C(=O)NCCF` [Example 4.117], the IC50 is 3 nM.
The same measure for `Cc1cc(N=S(C)(C)=O)cc2ncnc(Nc3ccc(F)cc3O[C@H](C)C(=O)NCC(F)(F)C(F)(F)F)c12` [Example 4.119]: 2 nM; for `C[C@@H](Oc1cc(F)ccc1Nc1ncnc2cc(N=S(C)(C)=O)cc(Cl)c12)C(=O)NC(CF)CF` [Example 4.120]: 2 nM; for `C[C@@H](Oc1cc(F)ccc1Nc1ncnc2cc(N=S(C)(C)=O)cc(F)c12)C(=O)NC(CF)CF` [Example 4.121]: 5 nM.
The same measure for `Cc1cc(N=S2(=O)CCC2)cc2ncnc(Nc3ccc(Cl)cc3O[C@H](C)C(=O)NCC(F)(F)F)c12` [Example 4.122]: 1 nM; for `C[C@@H](Oc1cc(F)ccc1Nc1ncnc2cc(N=S3(=O)CCC3)cc(F)c12)C(=O)NCC(F)F` [Example 4.123]: 3 nM; for `Cc1cc(N=S2(=O)CCC2)cc2ncnc(Nc3ccc(Cl)nc3O[C@H](C)C(=O)NCC(F)(F)F)c12` [Example 4.124]: 1 nM.
Then `Cc1cc(N=S2(=O)CCC2)cc2ncnc(Nc3ccc(Cl)cc3O[C@H](C)C(=O)NC(C)C(F)F)c12` (some centres unmarked) [Example 4.125], with 1 nM; and `CC(NC(=O)[C@@H](C)Oc1cc(F)ccc1Nc1ncnc2cc(N=S3(=O)CCC3)cc(Cl)c12)C(F)F` (some centres unmarked) [Example 4.126], with 2 nM.
Regarding `Cc1cc(N=S(C)(C)=O)cc2ncnc(Nc3ccc(F)cc3O[C@H](C)C(=O)N[C@@H](C)C(F)(F)F)c12` [Example 4.127], the IC50 is 2 nM.
Turning to `C[C@@H](Oc1cc(F)ccc1Nc1ncnc2cc(N=S3(=O)CCC3)cc(F)c12)C(=O)NC(CF)CF` [Example 4.128], the IC50 was found to be 2 nM.
Then `C[C@@H](Oc1cc(F)ccc1Nc1ncnc2cc(N=S3(=O)CCC3)cc(F)c12)C(=O)NCC(F)(F)C(F)(F)F` [Example 4.129], with 2 nM.
Then `CC(NC(=O)[C@@H](C)Oc1cc(F)ccc1Nc1ncnc2cc(N=S3(=O)CCC3)cc(F)c12)C(F)F` (some centres unmarked) [Example 4.130], with 3 nM; and `Cc1cc(N=S2(=O)CCC2)cc2ncnc(Nc3ccc(F)cc3O[C@H](C)C(=O)NC(CF)CF)c12` [Example 4.131], with 1 nM.
The same measure for `Cc1cc(N=S2(=O)CCC2)cc2ncnc(Nc3ccc(F)cc3O[C@H](C)C(=O)NC(C)C#N)c12` (some centres unmarked) [Example 4.132]: 1 nM.
Consider `C[C@@H](Oc1cc(F)ccc1Nc1ncnc2cc(N=S(C)(C)=O)cc(F)c12)C(=O)NCC(F)F` [Example 4.133], for which the IC50 amounted to 4 nM.
The same measure for `CC(NC(=O)[C@@H](C)Oc1cc(F)ccc1Nc1ncnc2cc(N=S(C)(C)=O)cc(Cl)c12)C(F)F` (some centres unmarked) [Example 4.134]: 3 nM.
Then `C[C@H](NC(=O)[C@@H](C)Oc1cc(F)ccc1Nc1ncnc2cc(N=S(C)(C)=O)cc(Cl)c12)C(F)(F)F` [Example 4.135], with 2 nM; and `C[C@@H](C#N)NC(=O)[C@@H](C)Oc1cc(F)ccc1Nc1ncnc2cc(N=S3(=O)CCC3)cc(Cl)c12` [Example 4.137], with 1 nM; and `Cc1cc(N=S2(=O)CCC2)cc2ncnc(Nc3ccc(F)cc3O[C@H](C)C(=O)NCC(F)(F)F)c12` [Example 4.139], with 1 nM.
The same measure for `Cc1cc(N=S2(=O)CCC2)cc2ncnc(Nc3ccc(Cl)nc3O[C@H](C)C(=O)N[C@@H](C)C#N)c12` [Example 4.140]: 1 nM; for `Cc1cc(N=S2(=O)CCC2)cc2ncnc(Nc3ccc(F)cc3O[C@H](C)C(=O)NCC(F)F)c12` [Example 4.141]: 1 nM; for `Cc1cc(N=S(C)(C)=O)cc2ncnc(Nc3ccc(Cl)cc3O[C@H](C)C(=O)NCC(F)F)c12` [Example 4.142]: 2 nM.
With `C[C@H](NC(=O)[C@@H](C)Oc1cc(F)ccc1Nc1ncnc2cc(N=S3(=O)CCC3)cc(C(F)F)c12)C(F)(F)F` [Example 4.143], the IC50 is 2 nM.
Then `Cc1cc(N=S2(=O)CCC2)cc2ncnc(Nc3ccc(F)cc3O[C@H](C)C(=O)NCCCF)c12` [Example 4.144], with 2 nM; and `Cc1cc(N=S2(=O)CCC2)cc2ncnc(Nc3ccc(Cl)cc3O[C@H](C)C(=O)N[C@H](C)C(F)(F)F)c12` [Example 4.145], with 2 nM.
`CC(NC(=O)[C@@H](C)Oc1cc(F)ccc1Nc1ncnc2cc(N=S3(=O)CCC3)cc(C(F)F)c12)C(F)F` (some centres unmarked) [Example 4.146]: the IC50 turned out to be 4 nM.
On to `Cc1cc(N=S2(=O)CCC2)cc2ncnc(Nc3ccc(Cl)cc3O[C@H](C)C(=O)N[C@@H](C)C#N)c12` [Example 4.147], for which the IC50 came to 3 nM.
Regarding `COC(=O)N1CCS(=O)(=Nc2cc(C)c3c(Nc4ccc(F)cc4O[C@H](C)c4cc(C)no4)ncnc3c2)CC1` [Example 5.013], the half-inhibitory concentration (IC50) stood at 2 nM.
The same measure for `COc1cc(N=S2(=O)CCC2)cc2ncnc(Nc3ccc(F)cc3O[C@H](C)C(=O)N[C@@H](C)C(F)(F)F)c12` [Example 6.001]: 5 nM.
Then `COc1cc(N=S2(=O)CCC2)cc2ncnc(Nc3ccc(F)cc3O[C@H](C)C(=O)NCC(F)F)c12` [Example 6.002], with 2 nM; and `CCOc1cc(N=S2(=O)CCC2)cc2ncnc(Nc3ccc(F)cc3O[C@H](C)C(=O)NCC(F)(F)F)c12` [Example 6.003], with 4 nM.
Then `COc1cc(N=S(C)(C)=O)cc2ncnc(Nc3cccnc3O[C@H](C)C(=O)NCC(F)(F)F)c12` [Example 6.004], with 3 nM; and `Cc1cc(N=S(C)(C)=O)cc2ncnc(Nc3ccc(F)cc3O[C@H](CO)C(=O)NCC(F)(F)F)c12` [Example 7.011], with 3 nM.
On to `Cc1cc(N=S(C)(C)=O)cc2ncnc(Nc3ccc(F)cc3O[C@H](CO)C(N)=O)c12` [Example 7.012], for which the IC50 is 46 nM.
Then `Cc1cc(N=S(C)(C)=O)cc2ncnc(Nc3ccc(F)cc3O[C@H](CF)C(=O)NCC(F)(F)F)c12` [Example 7.013], with 4 nM.

Values taken from patent US9139577B2, “Sulfoximine substituted quinazolines for pharmaceutical compositions” (Boehringer Ingelheim International GmbH, priority 2013, dated 2015).
